The source made the active and inactive calls. No cut-off for these calls is given here.

Drawing on ChEMBL document CHEMBL1275601, “Striking species difference in the contribution of concentrative nucleoside transporter 2 to nucleoside uptake between mouse and rat hepatocytes” (Antimicrob Agents Chemother, 2010), this text covers Activity for two compounds.

Type in all cases: cell-based
In assay [1] the target is T1, Equilibrative nucleoside transporter 2 (Rattus norvegicus) (UniProt O54699).
T1 sequence (whole entry): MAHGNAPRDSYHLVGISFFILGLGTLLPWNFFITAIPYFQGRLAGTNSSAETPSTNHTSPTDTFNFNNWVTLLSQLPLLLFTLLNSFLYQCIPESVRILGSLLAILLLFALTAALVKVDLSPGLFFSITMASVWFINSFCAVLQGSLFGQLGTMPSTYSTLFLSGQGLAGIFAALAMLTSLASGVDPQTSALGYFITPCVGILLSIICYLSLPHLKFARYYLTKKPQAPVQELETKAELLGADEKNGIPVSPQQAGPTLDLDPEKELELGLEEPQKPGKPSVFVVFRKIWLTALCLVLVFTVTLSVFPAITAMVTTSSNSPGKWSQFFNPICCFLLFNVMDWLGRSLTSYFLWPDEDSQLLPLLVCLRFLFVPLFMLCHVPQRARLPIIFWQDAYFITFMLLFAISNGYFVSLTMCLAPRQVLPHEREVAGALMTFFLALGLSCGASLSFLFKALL
The experiment in a line: Transport through ENT2 in rat hepatocytes by oil filtration assay in presence of sodium ions in Kreb-henseleit buffer. The settings on record: Hepatocyte.

Assay [2] concerns the target T2, Sodium/nucleoside cotransporter 1 (Rattus norvegicus) (UniProt Q62674).
T2 sequence (whole entry): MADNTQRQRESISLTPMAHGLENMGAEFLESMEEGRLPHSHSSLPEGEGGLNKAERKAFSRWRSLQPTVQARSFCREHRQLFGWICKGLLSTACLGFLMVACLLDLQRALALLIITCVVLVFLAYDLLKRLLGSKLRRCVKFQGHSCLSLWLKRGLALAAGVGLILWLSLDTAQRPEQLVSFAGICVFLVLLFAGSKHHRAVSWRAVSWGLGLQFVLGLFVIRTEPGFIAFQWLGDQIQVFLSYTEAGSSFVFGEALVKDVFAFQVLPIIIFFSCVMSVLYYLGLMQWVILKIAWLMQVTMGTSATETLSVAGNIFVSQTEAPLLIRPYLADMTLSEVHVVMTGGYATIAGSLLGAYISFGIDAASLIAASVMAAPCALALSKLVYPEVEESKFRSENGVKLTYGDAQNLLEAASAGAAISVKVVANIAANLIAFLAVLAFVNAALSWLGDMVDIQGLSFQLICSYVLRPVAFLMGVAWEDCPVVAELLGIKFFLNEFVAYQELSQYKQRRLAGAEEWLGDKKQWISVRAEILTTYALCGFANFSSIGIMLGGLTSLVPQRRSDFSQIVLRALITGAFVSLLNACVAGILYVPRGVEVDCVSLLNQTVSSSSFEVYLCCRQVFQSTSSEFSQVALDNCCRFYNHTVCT
The experiment in a line: Transport through CNT1 in rat hepatocytes by oil filtration assay in presence of sodium ions in Kreb-henseleit buffer. The following applies: Hepatocyte.

Assay [3] concerns the target T3, Sodium/nucleoside cotransporter 2 (Rattus norvegicus) (UniProt Q62773).
T3 sequence (whole entry): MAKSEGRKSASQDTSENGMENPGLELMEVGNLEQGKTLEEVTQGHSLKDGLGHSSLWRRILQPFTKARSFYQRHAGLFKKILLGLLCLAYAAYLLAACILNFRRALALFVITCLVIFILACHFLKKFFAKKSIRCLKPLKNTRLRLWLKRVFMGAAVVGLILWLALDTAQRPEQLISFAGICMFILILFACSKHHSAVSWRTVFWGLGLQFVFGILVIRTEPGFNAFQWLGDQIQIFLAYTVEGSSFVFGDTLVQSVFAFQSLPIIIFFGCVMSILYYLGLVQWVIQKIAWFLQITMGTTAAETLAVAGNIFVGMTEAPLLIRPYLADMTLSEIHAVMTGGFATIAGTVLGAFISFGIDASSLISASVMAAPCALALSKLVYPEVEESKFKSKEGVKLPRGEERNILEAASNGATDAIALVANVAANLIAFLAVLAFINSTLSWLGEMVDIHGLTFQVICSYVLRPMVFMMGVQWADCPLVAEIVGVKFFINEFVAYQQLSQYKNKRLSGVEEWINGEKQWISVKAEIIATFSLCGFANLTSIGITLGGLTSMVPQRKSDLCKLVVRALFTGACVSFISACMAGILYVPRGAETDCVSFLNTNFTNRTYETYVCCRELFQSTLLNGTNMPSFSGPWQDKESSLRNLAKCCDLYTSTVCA
Nature of the assay: Transport through CNT2 in rat hepatocytes by oil filtration assay in presence of sodium ions in Kreb-henseleit buffer. The following applies: Hepatocyte.

The target in assay [4] is T1, Equilibrative nucleoside transporter 2 (Rattus norvegicus). The experiment in a line: Transport through ENT2 in rat hepatocytes by oil filtration assay in presence of sodium ions in Kreb-henseleit buffer containing 100 uM NBMPR. The settings on record: Hepatocyte.
The target of assay [5] is T2, Sodium/nucleoside cotransporter 1 (Rattus norvegicus). Nature of the assay: Transport through CNT1 in rat hepatocytes by oil filtration assay in presence of sodium ions in Kreb-henseleit buffer containing 100 uM NBMPR and thymidine. The following applies: Hepatocyte.
The test system of assay [6] is Hepatocyte. Nature of the assay: Transport through CNT3 in rat hepatocytes by oil filtration assay in presence of sodium ions in Kreb-henseleit buffer containing 100 uM NBMPR and thymidine.
Assay [7] addresses T3, Sodium/nucleoside cotransporter 2 (Rattus norvegicus). Nature of the assay: Transport through CNT2 in rat hepatocytes by oil filtration assay in presence of sodium ions in Kreb-henseleit buffer containing 100 uM NBMPR and 1 mM uridine. The following applies: Hepatocyte.
Assay [8] relates to Hepatocyte. Nature of the assay: Transport through CNT3 in rat hepatocytes by oil filtration assay in presence of sodium ions in Kreb-henseleit buffer containing 100 uM NBMPR and 1 mM uridine.
In assay [9] the target is T4, Equilibrative nucleoside transporter 1 (Mus musculus) (UniProt Q9JIM1).
T4 sequence (whole entry): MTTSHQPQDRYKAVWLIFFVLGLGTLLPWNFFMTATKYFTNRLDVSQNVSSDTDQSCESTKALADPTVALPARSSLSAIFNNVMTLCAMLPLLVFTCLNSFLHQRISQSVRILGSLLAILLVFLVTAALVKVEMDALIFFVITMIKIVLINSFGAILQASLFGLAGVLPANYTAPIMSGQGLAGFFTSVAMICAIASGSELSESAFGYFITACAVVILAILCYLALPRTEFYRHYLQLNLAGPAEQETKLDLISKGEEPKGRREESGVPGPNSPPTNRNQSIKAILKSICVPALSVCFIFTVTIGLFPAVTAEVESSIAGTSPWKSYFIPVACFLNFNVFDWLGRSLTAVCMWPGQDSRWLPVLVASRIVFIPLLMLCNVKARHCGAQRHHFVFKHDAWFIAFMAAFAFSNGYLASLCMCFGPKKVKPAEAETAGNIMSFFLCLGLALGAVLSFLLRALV
Nature of the assay: Transport through ENT1 in mouse hepatocytes by oil filtration assay in presence 100 uM of transporter inhibitor NBMRP. The settings on record: Hepatocyte.

Consider `Nc1ncnc2c1ncn2[C@@H]1O[C@H](CO)[C@@H](O)[C@H]1O`, for which the result in assay [1], in assay [2], in assay [3] and in assay [4] was Active. The outcome in assay [5], in assay [6], in assay [7], in assay [8] and in assay [9] was inactive.
As for `NC(=O)c1ncn([C@@H]2O[C@H](CO)[C@@H](O)[C@H]2O)n1`, the outcome in assay [1], in assay [2], in [3] and in assay [4] was Active. Moreover, the result in [5], in assay [6], in assay [7], in assay [8] and in [9] was inactive.
